# Patent US7964732B2, “Substituted bicyclocarboxyamide compounds” (Pfizer Inc., priority 2006, dated 2011)
# Molecular target: T1, human VR1 (Homo sapiens, UniProt Q8NER1)
# T1 construct: host or cells: cells that express human VR1 receptors (cell type not specified)
# Assay: Human VR1 antagonist assay (Ca2+ imaging assay using human VR1 highly expressing cells)
# Format: cell-based
# Settings: intracellular Ca2+ imaging (fura-2)
# Text: VR1 antagonistic activity can be determined by the Ca^2+ imaging assay using human VR1 highly expressing cells. The cells that highly express human VR1 receptors are obtainable from several different conventional methods. The one standard method is cloning from human Dorsal Root Ganglion (DRG) or kidney according to the methods such as described in the journal article; Nature, 389, pp 816-824, 1997. Alternatively VR1 receptors highly expressing human keratinocytes are also known and published in the journal article (Biochemical and Biophysical Research Communications, 291, pp 124-129, 2002). […] Furthermore, the method to up regulate human VR1 gene, which is usually a silent gene or don't produce detectable level of VR1 receptors, is also available to obtain propriety cells. Such genetic modification method was described in detail; Nat. Biotechnol., 19, pp 440-445, 2001.
# The cells that express human VR1 receptors were maintained in culture flask at 37° C. in an environment containing 5% CO2 until use in the assay. The intracellular Ca^2+ imaging assay to determine VR1 antagonistic activities were done by following procedures.
# The culture medium was removed from the flask and fura-2/AM fluorescent calcium indicator was added to the flask at a concentration of 5 μM in the medium. The flask was placed in CO2 incubator and incubated for 1 hour. Then the cells expressing the human VR1 receptors were detached from the flask follow by washing with phosphate buffer saline, PBS(−) and re-suspended in assay buffer. The 80 μl of aliquot of cell suspension (3.75×10^5 cells/ml) was added to the assay plate and the cells were spun down by centrifuge (950 rpm, 20° C., 3 minutes).
# Compounds of the examples were tested in the Human VR1 antagonist assay described above.
# The capsaicin-induced changes in the intracellular calcium concentration were monitored using FDSS 6000 (Hamamatsu Photonics, Japan), a fluorometric imaging system. The cell suspension in Krebs-Ringer HEPES (KRH) buffer (115 mM NaCl, 5.4 mM KCl, 1 mM MgSO4, 1.8 mM CaCl2, 11 mM D-Glucose, 25 mM HEPES, 0.96 mM Na2HPO4, pH 7.3) were pre-incubated with varying concentrations of the test compounds or KRH buffer (buffer control) for 15 minutes at room temperature under the dark condition. Then capsaicin solution, which gives 300 nM in assay mixture, was automatically added to the assay plate by the FDSS 6000.
# The Acid-induced changes in the intracellular calcium concentration were monitored using FDSS 6000 (Hamamatsu Photonics, Japan), a fluorometric imaging system. The cell suspension in resting buffer (HBSS supplemented with 10 mM HEPES, pH 7.4) were pre-incubated with varying concentrations of the test compounds or resting buffer (buffer control) for 15 minutes at room temperature under the dark condition. The cells were automatically added the stimulating solution (HBSS supplemented with MES, final assay buffer pH5.8) by the FDSS 6000.
# The monitoring of the changes in the fluorescence signals (λex=340 nm/380 nm, λem=510-520 nm) was initiated at 1 minute prior to the addition of capsaicin solution or acidic buffer and continued for 5 minute.
# T1 sequence (Q8NER1 whole entry): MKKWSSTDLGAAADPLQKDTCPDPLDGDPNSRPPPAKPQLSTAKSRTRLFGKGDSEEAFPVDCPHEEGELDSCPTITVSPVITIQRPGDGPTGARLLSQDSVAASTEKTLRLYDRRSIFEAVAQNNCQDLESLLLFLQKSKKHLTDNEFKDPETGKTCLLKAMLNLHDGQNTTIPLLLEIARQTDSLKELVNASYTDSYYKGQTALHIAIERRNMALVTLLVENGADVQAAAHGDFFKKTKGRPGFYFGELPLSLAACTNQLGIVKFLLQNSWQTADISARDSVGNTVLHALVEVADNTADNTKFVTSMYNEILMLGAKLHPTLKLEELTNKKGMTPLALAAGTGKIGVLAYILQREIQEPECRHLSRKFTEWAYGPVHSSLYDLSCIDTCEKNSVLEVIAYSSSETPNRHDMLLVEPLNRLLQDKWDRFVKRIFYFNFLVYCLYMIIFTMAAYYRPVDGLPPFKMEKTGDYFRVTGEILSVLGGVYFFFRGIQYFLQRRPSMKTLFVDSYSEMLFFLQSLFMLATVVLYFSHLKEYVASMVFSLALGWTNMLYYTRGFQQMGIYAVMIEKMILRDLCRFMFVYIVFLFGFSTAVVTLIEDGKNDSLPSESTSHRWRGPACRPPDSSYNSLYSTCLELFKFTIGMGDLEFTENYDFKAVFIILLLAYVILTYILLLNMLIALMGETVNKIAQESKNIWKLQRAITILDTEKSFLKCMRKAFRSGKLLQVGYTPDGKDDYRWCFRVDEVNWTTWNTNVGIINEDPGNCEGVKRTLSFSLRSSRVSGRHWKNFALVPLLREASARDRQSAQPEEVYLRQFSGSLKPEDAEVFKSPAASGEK
row,SMILES,IC50 [nM]
1,"Cc1[nH]ncc1C(C)NC(=O)c1ccc2nc(C(C)(C)C(F)(F)F)ccc2c1 (centres unmarked) [Example 9, N-[1-(5-methyl-1H-pyrazol-4-yl)ethyl]-2-(2,2,2-trifluoro-1,1-dimethylethyl)quinoline-6-carboxamide]",323
2,"C[C@@H](NC(=O)c1ccc2nc(C(C)(C)C(F)(F)F)ccc2c1)c1cnn(C)c1Cl [Example 18a, (R)-N-(1-(5-chloro-1-methyl-1H-pyrazol-4-yl)ethyl)-2-(2,2,2-trifluoro-1,1-dimethylethyl)quinoline-6-carboxamide]",3
3,"C[C@@H](NC(=O)c1ccc2nc(C(C)(C)C(F)(F)F)ccc2c1)c1cnn(C)c1CO [Example 4, (R)-N-(1-(5-(hydroxymethyl)-1-methyl-1H-pyrazol-4-yl)ethyl)-2-(2,2,2-trifluoro-1,1-dimethylethyl)quinoline-6-carboxamide]",607
4,"Cc1c(CNC(=O)c2ccc3nc(C(C)(C)C(F)(F)F)ccc3c2)cnn1C [Example 2, N-[(1,5-dimethyl-1H-pyrazol-4-yl)methyl]-2-(2,2,2-trifluoro-1,1-dimethylethyl)quinoline-6-carboxamide]",261
5,"CCn1ncc(C(C)NC(=O)c2ccc3nc(C(C)(C)C(F)(F)F)ccc3c2)c1C (centres unmarked) [Example 16, N-[1-(1-ethyl-5-methyl-1H-pyrazol-4-yl)ethyl]-2-(2,2,2-trifluoro-1,1-dimethylethyl)quinoline-6-carboxamide]",28.9
6,"C[C@@H](NC(=O)c1ccc2nc(C(C)(C)C(F)(F)F)ccc2c1)c1cnn(C)c1C#N [Example 3, (R)-N-(1-(5-cyano-1-methyl-1H-pyrazol-4-yl)ethyl)-2-(2,2,2-trifluoro-1,1-dimethylethyl)quinoline-6-carboxamide]",322
7,Cc1c([C@@H](C)NC(=O)c2ccc3nc(C(C)(O)C(F)(F)F)ccc3c2)cnn1C (some centres unmarked) [Example 14],63.7
8,"Cc1c(C(C)NC(=O)c2ccc3nc(C(C)(C)C(F)(F)F)ccc3c2)cnn1CC(F)(F)F (centres unmarked) [Example 5, N-(1-(5-methyl-1-(2,2,2-trifluoroethyl)-1H-pyrazol-4-yl)ethyl)-2-(2,2,2-trifluoro-1,1-dimethylethyl)quinoline-6-carboxamide]",44.1
9,"Cc1c(C(C)NC(=O)c2ccc3cc(C(C)(C)C)ccc3c2)cnn1C (centres unmarked) [Example 24, 6-tert-butyl-N-[1-(1,5-dimethyl-1H-pyrazol-4-yl)ethyl]-2-naphthamide]",23
10,"Cc1c([C@@H](C)NC(=O)c2ccc3nc(C4(C)CC4)ccc3c2)cnn1C [Example 13, N-[(1R)-1-(1,5-dimethyl-1H-pyrazol-4-yl)ethyl]-2-(1-methylcyclopropyl) quinoline-6-carboxamide]",313
11,"Cc1nn(C)cc1CNC(=O)c1ccc2cc(C(C)(C)C)ccc2c1 [Example 26, 6-tert-butyl-N-[(1,3-dimethyl-1H-pyrazol-4-yl)methyl]-2-naphthamide]",443
12,"CC[C@@H](NC(=O)c1ccc2nc(C(C)(C)C(F)(F)F)ccc2c1)c1cnn(C)c1C (single isomer, unassigned) [Example 8]",66
13,"Cc1n[nH]c(C)c1CNC(=O)c1ccc2cc(C(C)(C)C)ccc2c1 [Example 25, 6-tert-butyl-N-[(3,5-dimethyl-1H-pyrazol-4-yl)methyl]-2-naphthamide]",118
14,"Cc1c(CNC(=O)c2ccc3cc(C(C)(C)C)ccc3c2)cnn1C [Example 27, 6-tert-butyl-N-[(1,5-dimethyl-1H-pyrazol-4-yl)methyl]-2-naphthamide]",73
15,Cc1c(C(C)NC(=O)c2ccc3nc(C(C)(C)C(F)(F)F)ccc3c2)cnn1C1CCC1 (centres unmarked) [Example 17],124
16,"Cc1c(C(C)NC(=O)c2ccc3nc(C(C)(C)C(F)(F)F)ccc3c2)cnn1CC(C)(C)O (centres unmarked) [Example 12, N-(1-(1-(2-hydroxy-2-methylpropyl)-5-methyl-1H-pyrazol-4-yl)ethyl)-2-(2,2,2-trifluoro-1,1-dimethylethyl)quinoline-6-carboxamide]",79.9
17,"CCn1ncc(CNC(=O)c2ccc3nc(C(C)(C)C(F)(F)F)ccc3c2)c1C [Example 15, N-[(1-ethyl-5-methyl-1H-pyrazol-4-yl)methyl]-2-(2,2,2-trifluoro-1,1-dimethylethyl)quinoline-6-carboxamide]",71.7
18,"Cc1c([C@@H](C)NC(=O)c2ccc3nc(C(F)(F)F)ccc3c2)cnn1C [Example 23, (R)-N-(1-(1,5-dimethyl-1H-pyrazol-4-yl)ethyl)-2-(trifluoromethyl) quinoline-6-carboxamide]",121
19,"CCC(NC(=O)c1ccc2nc(C(C)(C)C(F)(F)F)ccc2c1)c1cnn(C)c1C (racemic) [Example 7, N-[1-(1,5-dimethyl-1H-pyrazol-4-yl)propyl]-2-(2,2,2-trifluoro-1,1-dimethylethyl)quinoline-6-carboxamide]",145
20,"Cc1c(C(C)NC(=O)c2ccc3nc(C(C)(C)C(F)(F)F)ccc3c2)cnn1CCO (centres unmarked) [Example 11, N-(1-(1-(2-hydroxyethyl)-5-methyl-1H-pyrazol-4-yl)ethyl)-2-(2,2,2-trifluoro-1,1-dimethylethyl)quinoline-6-carboxamide]",16.4

# Next, values leading:
row,IC50 [nM],SMILES
1,20.1,"Cc1c([C@@H](C)NC(=O)c2ccc3cc(C4(C)CC4)ccc3c2)cnn1C [Example 30, N-[(1R)-1-(1,5-dimethyl-1H-pyrazol-4-yl)ethyl]-6-(1-methylcyclopropyl)-2-naphthamide]"
2,189,"Cc1c(C(C)NC(=O)c2ccc3cc(C(F)(F)F)ccc3c2)cnn1C (centres unmarked) [Example 29, N-(1-(1,5-dimethyl-1H-pyrazol-4-yl)ethyl)-6-(trifluoromethyl)-2-naphthamide]"
3,3190,"Cc1c([C@@H](C)NC(=O)c2ccc3cc([C@](C)(O)C(F)(F)F)ccc3c2)cnn1C [Example 32a, N-[(1R)-1-(1,5-dimethyl-1H-pyrazol-4-yl)ethyl]-6-[(1S)-2,2,2-trifluoro-1-hydroxy-1-methylethyl]-2-naphthamide]"
4,1870,"Cc1nn(C)c(C)c1CNC(=O)c1ccc2cc(C(C)(C)C)ccc2c1 [Example 35, 6-tert-butyl-N-((1,3,5-trimethyl-1H-pyrazol-4-yl)methyl)-2-naphthamide]"
5,1000,"Cc1c(C(C)NC(=O)c2ccc3cc(C(C)(C)O)ccc3c2)cnn1C (centres unmarked) [Example 37, N-[1-(1,5-dimethyl-1H-pyrazol-4-yl)ethyl]-6-(1-hydroxy-1-methylethyl)-2-naphthamide]"
6,52.7,"Cc1c([C@@H](C)NC(=O)c2ccc3cc([C@@](C)(O)C(F)(F)F)ccc3c2)cnn1C (single isomer, unassigned) [Example 32]"
7,177,"Cc1c([C@@H](C)NC(=O)c2ccc3cc(C(C)(O)C(F)(F)F)ccc3c2)cnn1C (mixture of isomers) [Example 31, N-[(1R)-1-(1,5-dimethyl-1H-pyrazol-4-yl)ethyl]-6-(2,2,2-trifluoro-1-hydroxy-1-methylethyl)-2-naphthamide]"
8,237 to 455,"Oc1cc2c(cc1O)CN(C(=S)NCCc1ccc(Cl)cc1)CCC2 [capsazepin, reference compound]"
9,57.4,"CCC(NC(=O)c1ccc2cc(C(C)(C)C)ccc2c1)c1cnn(C)c1C (centres unmarked) [Example 28, 6-tert-butyl-N-(1-(1,5-dimethyl-1H-pyrazol-4-yl)propyl)-2-naphthamide]"
10,254,"Cc1c(CNC(=O)c2ccc3cc(C(C)(C)C)ccc3n2)cnn1C [Example 34, 6-tert-butyl-N-[(1,5-dimethyl-1H-pyrazol-4-yl)methyl]quinoline-2-carboxamide]"
11,139,"COC(C)(c1ccc2cc(C(=O)NC(C)c3cnn(C)c3C)ccc2c1)C(F)(F)F (centres unmarked) [Example 33, N-[1-(1,5-dimethyl-1H-pyrazol-4-yl)ethyl]-6-(2,2,2-trifluoro-1-methoxy-1-methylethyl)-2-naphthamide]"
12,3480,Cn1cc(CNC(=O)c2ccc3cc(C(C)(C)C)ccc3c2)cn1 [Example 36]
